In US7179460B2, “Bacterial composition and its use” (priority 2002, dated 2007):

What follows are compounds tested on Bifidobacterium lactis PTA-4802 (assay: Antibiotic sensitivity profile (NCCLS M11-A5 agar dilution MIC)). Conditions: MRS + cysteine agar; sensitivity of strain PTA-4802 to the antibiotic.
Type: cell-based

| Compound | Antibiotic Sensitivity (S/I/R) |
| --- | --- |
| CC1(C)S[C@@H]2[C@H](NC(=O)Cc3ccccc3)C(=O)N2[C@H]1C(=O)O [Penicillin G] | S (MIC <4 ug/ml = Sensitive (S)) |
| Gentamicin | R (MIC >64 ug/ml = Resistant (R)) |
| Neomycin | R (MIC >64 ug/ml = Resistant (R)) |
| Polymyxin B | R (MIC >64 ug/ml = Resistant (R)) |
